Data taken from patent publication US20070060636A1, “High enantiomeric purity dexanabinol for pharmaceutical compositions” (priority 2002, published 2007).

What was measured:
[1] = 1st Phase I study, rising single i.v. dose, healthy male volunteers; type: in vivo, human; conditions: for AUC∞/Dose: normalized for dose (mg/kg); for half-life / MRT / clearance / AUC / AUC(0-inf) / Cmax / Vd: male, human, plasma, iv; for AUC / AUC(0-inf) / Cmax: up to 24 hr; for Vd: read-out: Vss
Method: (§1) Pharmacokinetic parameters were estimated by a non-compartmental method using WinNonlin Professional version 3.2 (Pharsight Corp., Mountain View, Calif.). The maximum plasma concentration (Cmax), when the drug is administered by infusion, is the concentration at the end of infusion. The Cmax following intravenous bolus administration is the value estimated by the software to be the concentration at t=0. The terminal slope (X) was estimated by linear regression through the last time points and used to calculate the terminal half-life (t1/2) from the following equation: t1/2=0.693/λ The area under the curve from time of dosing through the last time point (AUCz) was calculated by the linear trapezoid method. The AUC extrapolated to infinity (AUC∞) was calculated from the following equation: AUC∞=AUCz+Cz/λ where Cz is the concentration at the last time point predicted by the linear regression. AUC∞ was normalized for dose (mg/kg) and presented as AUC∞/Dose. Mean residence time (MRT), when the drug is administered by infusion is described by the following equation: MRT=(AUMC/AUC)−(TI)/2 Mean residence time after i.v. bolus administration is described by the following equation: MRT=(AUMC/AUC) where AUMC is the area under the first moment curve and TI is the length of infusion. Plasma clearance (CL), and the apparent volume of distribution at steady state (Vss) were calculated from the following equations: CL=Dose/AUC∞ Vss=MRT×CL
A Phase I, open label, single center study was conducted to evaluate the safety and tolerance of dexanabinol of high enantiomeric purity following a single intravenous administration to normal, healthy male volunteers (Brewster M. E. et al., International Journal Of Clinical Pharmacology and Therapeutics 35: 361-5, 1997). The trial was designed as a rising-dose tolerance study in healthy young male volunteers. In the study, seven groups of at least six subjects each (in the 100 mg dose n=9) received increasing doses (4, 8, 16, 32, 48, 100, 200 mg/volunteer) of dexanabinol. An additional group of 6 subjects received the vehicle alone. The lower doses, from 4 to 32 mg/volunteer, were included only in the safety segment of the study. Volunteers were followed-up up to 6 days after drug dosing for safety evaluation.
The pharmacokinetic segment of this study involved 27 healthy male subjects to assess the pharmacokinetic profile of 48, 100 and 200 mg i.v. doses of dexanabinol. Each dosing group, including vehicle control, consisted of 6 healthy male subjects, except for the 100 mg dosing group which contained nine subjects. On the pre-study day, volunteers were treated with 20 mg dexamethasone orally. On the study day, each group was premedicated with Chlorpheniramine maleate 10 mg (H1 blocker) and Cimetidine 300 mg (H2 blocker) intravenously, followed 30 minutes later by a single intravenous infusion of dexanabinol, administered using an Ivac peristaltic pump at a rate of 6 ml/min (approximately 15 min infusion/dose). Ten milliliters of blood were then removed (from the contralateral arm) at the end of the infusion, at 5, 10, 20, 30, 45 min, and at 1, 2, 3, 6, 12 and 24 hr post infusion. In some cases blood was also drawn 48 hr post end of infusion.
Mean pharmacokinetic parameters were estimated by non-compartmental methods up to 24 hr post-infusion for each dose group (mean±SE; n=6 or 9) using WinNonlin Professional version 3.2, (Pharsight Corp., Mountain view Calif.) and are presented in Table 8.

[2] = 2nd Phase I study, single i.v. dose 48 or 150 mg, healthy male volunteers; type: in vivo, human; conditions: for AUC∞/Dose: normalized for dose (mg/kg); for clearance / Cmax / MRT / AUC / AUC(0-inf) / half-life / Vd: male, human, plasma; for Vd: read-out: Vss
Method: as §1
A second human Phase I study involving 24 healthy male volunteers was carried out to compare the pharmacokinetics of dexanabinol following a single i.v. dose of 48 mg or 150 mg. The subjects were divided into two groups of 12 subjects each. Each group was premedicated with ATOSIL® 25 mg (Promethazine H1 blocker), and ZANTAC® 50 mg (Ranitidine H2 blocker) intravenously, followed 15 minutes later by a single short intravenous infusion of dexanabinol lasting 15 minutes. Blood samples for pharmacokinetic assays for dexanabinol were collected immediately before premedication (T=0), immediately after dosing (T=0+) (at the end of the infusion), at 5, 10, 20, 30, 45, and 60 min, and 2, 4, 6, 8, 12, 16, 24, 48, 72 and 96 hr post-dosing. Blood was also collected from four subjects from group 2 ([…]) on Days 6, 10 and 14. For both dose levels, initial rapid declines in plasma concentration followed by a progressively slower decline were observed.
Pharmacokinetic parameters were estimated by non-compartmental methods up to 96 hr post-infusion, using WinNonlin Professional version 3.2 (Pharsight Corp., Mountain View, Calif., USA).

[3] = 48 mg single i.v. infusion, healthy volunteers, mean ± SE
[4] = 100 mg single i.v. infusion, healthy volunteers, mean ± SE
[5] = 200 mg single i.v. infusion, healthy volunteers, mean ± SE
[6] = human Phase I, 150 mg single i.v., reference itself
[7] = iv, 48 mg single i.v. infusion, healthy volunteers, mean ± SE
[8] = iv, 48 mg single i.v. infusion, healthy volunteers, mean ± SE, up to 96 hr
[9] = iv, 150 mg single i.v. infusion, healthy volunteers, mean ± SE
[10] = iv, 150 mg single i.v. infusion, healthy volunteers, mean ± SE, up to 96 hr

CCCCCCC(C)(C)c1cc(O)c2c(c1)OC(C)(C)[C@H]1CC=C(CO)C[C@H]21 [dexanabinol, 1,1-dimethylheptyl-(3S,4S)-7-hydroxy-Δ^6-tetrahydrocannabinol]
AUC∞/Dose [1, 3]: 72,469 ± 8,774 ng × min/ml | AUC∞/Dose [1, 4]: 59,374 ± 4,742 ng × min/ml | AUC∞/Dose [1, 5]: 48,162 ± 3,355 ng × min/ml | Plasma concentrations ([1]; after a 48 mg dose (0.62 mg/kg)): approximately 1.8 μg/ml | Plasma concentrations ([1]; at 100 mg (1.29 mg/kg)): ~2900 ng/mL | Plasma concentrations ([1]; at 200 mg (2.59 mg/kg)): ~4600 ng/mL | half-life ([1]; 48 mg, 48 mg single i.v. infusion, healthy volunteers, mean ± SE, read-out: t1/2 (converted)): 6.3 ± 0.7 h | half-life ([1]; 100 mg, 100 mg single i.v. infusion, healthy volunteers, mean ± SE, read-out: t1/2 (converted)): 6.1 ± 0.7 h | half-life ([1]; 200 mg, 200 mg single i.v. infusion, healthy volunteers, mean ± SE, read-out: t1/2 (converted)): 8.2 ± 0.7 h | half-life ([1]; single i.v. infusion 48, 100, 200 mg, read-out: distributional phase half-life): 0.0333 to 0.05 h | half-life ([1]; single i.v. infusion 48, 100, 200 mg, read-out: intermediate phase elimination half-life): 1 to 2 h | half-life ([1]; single i.v. infusion 48, 100, 200 mg, read-out: terminal elimination phase half-life): 8.5 to 9.5 h | MRT [1, 3]: 3.1 ± 0.2 h | clearance [1, 3]: 14.9 ± 1.9 mL/min/kg | AUC [1, 3]: 710 ng·h/mL | AUC(0-inf) [1, 3]: 725 ng·h/mL | Cmax [1, 3]: 1860 ng/mL | Vd [1, 3]: 2.8 ± 0.4 L/kg | MRT [1, 4]: 3.1 ± 0.3 h | clearance [1, 4]: 17.8 ± 1.5 mL/min/kg | AUC [1, 4]: 1200 ng·h/mL | AUC(0-inf) [1, 4]: 1220 ng·h/mL | Cmax [1, 4]: 2890 ng/mL | Vd [1, 4]: 3.4 ± 0.4 L/kg | MRT [1, 5]: 4 ± 0.6 h | clearance [1, 5]: 21.3 ± 1.6 mL/min/kg | AUC [1, 5]: 2240 ng·h/mL | AUC(0-inf) [1, 5]: 2320 ng·h/mL | Cmax [1, 5]: 4570 ng/mL | Vd [1, 5]: 5 ± 0.7 L/kg | acute doses found safe ([1]; single i.v.): ≤ 200 mg per subject | tolerability of drug administration ([1]; single i.v. 4 to 200 mg/volunteer): well tolerated | 30 min plasma values as % of the end of infusion levels ([2]; 48 mg and 150 mg): about 11% | AUC∞/Dose [2, 3]: 78,137 ± 4,305 ng × min/ml | AUC∞/Dose ([2]; 150 mg single i.v. infusion, healthy volunteers, mean ± SE): 93,408 ± 4,224 ng × min/ml | AUC∞ Ratio to Phase I [2, 6]: 1.0 | Cmax Ratio to Phase I [2, 6]: 1.0 | clearance ([2]; intravenous, 48 mg and 150 mg, read-out: Total plasma clearance (CL), average across the two dose groups): 12 mL/min/kg | Cmax ([2]; intravenous, after the 48 mg dose (0.63 mg/kg), read-out: Maximum plasma concentrations (Cmax)): 1230 ng/mL | Cmax ([2]; intravenous, at 150 mg (2.05 mg/kg), read-out: Maximum plasma concentrations (Cmax)): 5000 ng/mL | MRT [2, 7]: 8.4 ± 0.5 h | AUC [2, 8]: 811 ng·h/mL | AUC(0-inf) [2, 8]: 824 ng·h/mL | half-life [2, 8]: 31.2 ± 3.6 h | Cmax ([2]; iv, 48 mg single i.v. infusion, healthy volunteers, mean ± SE, up to 96 hr, read-out: Cmax): 1230 ng/mL | clearance ([2]; iv, 48 mg single i.v. infusion, healthy volunteers, mean ± SE, read-out: CL): 13.2 ± 0.7 mL/min/kg | Vd [2, 7]: 6.6 ± 0.5 L/kg | MRT [2, 9]: 6.9 ± 0.4 h | AUC [2, 10]: 3180 ng·h/mL | AUC(0-inf) [2, 10]: 3210 ng·h/mL | half-life [2, 10]: 23.4 ± 1.8 h | Cmax ([2]; iv, 150 mg single i.v. infusion, healthy volunteers, mean ± SE, up to 96 hr, read-out: Cmax): 5010 ng/mL | clearance ([2]; iv, 150 mg single i.v. infusion, healthy volunteers, mean ± SE, read-out: CL): 10.9 ± 0.5 mL/min/kg | Vd [2, 9]: 4.5 ± 0.4 L/kg | safety in human subjects ([2]; the two phase I studies): safe, well tolerated and no psychomimetic side effects were detected
